Laboratory results as given in ChEMBL document CHEMBL1147608, “SAR development of polycyclic guanine derivatives targeted to the discovery of a selective PDE5 inhibitor for treatment of erectile dysfunction” (Bioorg Med Chem Lett, 2004).
pIC50: −log10 of the molar value.

What was measured:
[1] = target: T1, cGMP-specific 3',5'-cyclic phosphodiesterase (Homo sapiens, UniProt O76074)
[2] = target: T1, cGMP-specific 3',5'-cyclic phosphodiesterase; test: Inhibition of human phosphodiesterase 5 at 100 nM
[3] = target: Phosphodiesterase, PDE1/PDE5 (Homo sapiens) (UniProt O76074+P54750+Q01064+Q14123); test: Realtive inhibition of PDE1 and PDE5; format: protein assay
[4] = target: Phosphodiesterase 4 and 5 (PDE4 and PDE5) (Homo sapiens) (UniProt O76074+P27815+Q08499+Q07343+Q08493); test: Relative inhibition of PDE4 and PDE5; format: protein assay
[5] = target: Phosphodiesterase 2 and 5 (PDE2 and PDE5) (Homo sapiens) (UniProt O76074+O00408); test: Relative inhibition of PDE2 and PDE5; format: protein assay
[6] = target: Phosphodiesterase 3 and 5 (PDE3 and PDE5) (Homo sapiens) (UniProt O76074+Q14432+Q13370); test: Relative inhibition of PDE3 and PDE5; format: protein assay

SMILES | pIC50 [1] | also measured
CCN1C(=O)c2c(nc(Cc3ccccc3)n2Cc2ccc(N)cc2)N2C1=N[C@@H]1CCC[C@@H]12 | 6.26 | –
CCN1C(=O)c2c(ncn2Cc2ccc(OC)c(Br)c2)N2C1=N[C@@H]1CCC[C@@H]12 | 8.19 | –
CCN1C(=O)c2c(nc(C#Cc3ccccc3)n2Cc2ccc(OC)cc2)N2C1=N[C@@H]1CCC[C@@H]12 | 8.51 | –
CCN1C(=O)c2c(nc(C#N)n2Cc2ccc(OC)cc2)N2C1=N[C@@H]1CCC[C@@H]12 | 8.20 | –
CCN1C(=O)c2c(nc(C(N)=O)n2Cc2ccc(O)c(Cl)c2)N2C1=N[C@@H]1CCC[C@@H]12 | 8.96 | –
CCN1C(=O)c2c(nc(C(N)=O)n2Cc2ccc(OC)c(Br)c2)N2C1=N[C@@H]1CCC[C@@H]12 | 8.82 | –
CCN1C(=O)c2c(nc(C(=O)OC)n2Cc2ccc(OC)cc2)N2C1=N[C@@H]1CCC[C@@H]12 | 8.17 | –
CCN1C(=O)c2c(nc(Cc3ccccc3)n2Cc2ccc(C)cc2)N2C1=N[C@@H]1CCC[C@@H]12 | 7.40 | –
CCN1C(=O)c2c(nc(C(=O)NC)n2Cc2ccc(OC)c(Cl)c2)N2C1=N[C@@H]1CCC[C@@H]12 | 8.64 | –
CCN1C(=O)c2c(nc(Cc3ccccc3)n2Cc2ccccc2)N2C1=N[C@@H]1CCC[C@@H]12 | 6.89 | –
CCN1C(=O)c2c(nc(C(F)(F)F)n2Cc2ccc(OC)cc2)N2C1=N[C@@H]1CCC[C@@H]12 | 7.32 | –
CCN1C(=O)c2c(nc(N)n2Cc2ccc(O)cc2)N2C1=N[C@@H]1CCC[C@@H]12 | 7.66 | –
CCN1C(=O)c2c(nc(OC)n2Cc2ccc(OC)c(Br)c2)N2C1=N[C@@H]1CCC[C@@H]12 | 8.55 | –
CCN1C(=O)c2c(nc(Cc3ccccc3)n2Cc2ccccc2C)N2C1=N[C@@H]1CCC[C@@H]12 | – | inhibition [2]: 18%
CCN1C(=O)c2c(nc(C(N)=O)n2Cc2ccc(O)c(Cl)c2)N2C[C@@H](Cc3ccccc3)N=C12 | 8.52 | Selectivity [3]: 2600; Selectivity [4]: 1730; Selectivity [5]: 3330; Selectivity [6]: 3330
CCOc1nc2c(n1Cc1ccc(OC)c(Br)c1)C(=O)N(CC)C1=N[C@@H]3CCC[C@@H]3N12 | 8.27 | –
CCN1C(=O)c2c(nc(N(C)C)n2Cc2ccc(OC)cc2)N2C1=N[C@@H]1CCC[C@@H]12 | – | inhibition [2]: 27%
CCN1C(=O)c2c(nc(Cc3ccccc3)n2Cc2cccc(Br)c2)N2C1=N[C@@H]1CCC[C@@H]12 | – | inhibition [2]: 33%
CCN1C(=O)c2c(nc(OC)n2Cc2ccc(O)c(C#N)c2)N2C[C@@H](Cc3ccccc3)N=C12 | 7.37 | –

SMILES | pIC50 [1] | also measured
CCN1C(=O)c2c(nc(C(N)=O)n2Cc2ccc(O)cc2)N2C1=N[C@@H]1CCC[C@@H]12 | 8.68 | –
CCN1C(=O)c2c(nc(OC)n2Cc2ccc(OC)c(C#N)c2)N2C[C@@H](Cc3ccccc3)N=C12 | 7.96 | Selectivity [3]: 536; Selectivity [4]: 464; Selectivity [5]: 909; Selectivity [6]: 909
CCN1C(=O)c2c(nc(C#Cc3ccccc3)n2Cc2ccccc2)N2C1=N[C@@H]1CCC[C@@H]12 | 8.10 | –
CCN1C(=O)c2c(nc(Cc3ccccc3)n2Cc2ccc([N+](=O)[O-])cc2)N2C1=N[C@@H]1CCC[C@@H]12 | – | inhibition [2]: 8%
CCN1C(=O)c2c(nc(Cc3ccccc3)n2Cc2ccc(C)c(Cl)c2)N2C1=N[C@@H]1CCC[C@@H]12 | – | inhibition [2]: 27%
CCOc1nc2c(n1Cc1ccc(OC)c(Cl)c1)C(=O)N(CC)C1=N[C@@H]3CCC[C@@H]3N12 | 8.19 | –
CCN1C(=O)c2c(nc(Cc3ccccc3)n2Cc2ccc(OC)cc2)N2C1=N[C@@H]1CCC[C@@H]12 | 7.70 | –
CCN1C(=O)c2c(nc(OC)n2Cc2ccc(OC)c(Cl)c2)N2C1=N[C@@H]1CCC[C@@H]12 | 8.30 | –
CCN1C(=O)c2c(nc(N=[N+]=[N-])n2Cc2ccc(O)cc2)N2C1=N[C@@H]1CCC[C@@H]12 | 9.21 | –
CCN1C(=O)c2c(nc(C(N)=O)n2Cc2ccc(OC)c(Cl)c2)N2C[C@@H](Cc3ccccc3)N=C12 | 8.55 | –
CCN1C(=O)c2[nH]c(Cc3ccccc3)nc2N2C1=N[C@@H]1CCC[C@@H]12 | 7.41 | –
CCN1C(=O)c2c(nc(C#Cc3ccccc3)n2Cc2ccc(Cl)cc2)N2C1=N[C@@H]1CCC[C@@H]12 | 8.30 | –
CCN1C(=O)c2c(nc(Cc3ccccc3)n2Cc2ccc3c(c2)OCO3)N2C1=N[C@@H]1CCC[C@@H]12 | 7.34 | –
CCSc1nc2c(n1Cc1ccc(OC)cc1)C(=O)N(CC)C1=N[C@@H]3CCC[C@@H]3N12 | 7.89 | –
CCN1C(=O)c2c(nc(C#Cc3ccccc3)n2Cc2ccc(O)cc2)N2C1=N[C@@H]1CCC[C@@H]12 | 9.52 | –
CCN1C(=O)c2c(nc(Cc3ccccc3)n2Cc2cccc(OC)c2)N2C1=N[C@@H]1CCC[C@@H]12 | – | inhibition [2]: 14%
CCN1C(=O)c2c(ncn2Cc2ccc(OC)cc2)N2C1=N[C@@H]1CCC[C@@H]12 | 7.26 | –
CCN1C(=O)c2c(nc(Cc3ccccc3)n2Cc2ccc3ccccc3c2)N2C1=N[C@@H]1CCC[C@@H]12 | – | inhibition [2]: 32%
CCN1C(=O)c2c(nc(C(F)(F)F)n2Cc2ccc(O)cc2)N2C1=N[C@@H]1CCC[C@@H]12 | 8.15 | –

SMILES | pIC50 [1] | also measured
CCOc1nc2c(n1Cc1ccc(OC)cc1)C(=O)N(CC)C1=N[C@@H]3CCC[C@@H]3N12 | 7.74 | –
CCN1C(=O)c2c(nc(C(N)=O)n2Cc2ccc(O)c(Br)c2)N2C1=N[C@@H]1CCC[C@@H]12 | 9.05 | –
CCN1C(=O)c2c(ncn2Cc2ccc(O)c(Br)c2)N2C1=N[C@@H]1CCC[C@@H]12 | 8.20 | –
CCN1C(=O)c2c(nc(Cc3ccccc3)n2Cc2ccc(OC)c(Cl)c2)N2C1=N[C@@H]1CCC[C@@H]12 | 7.24 | –
CCN1C(=O)c2c(nc(OC)n2Cc2ccc(OC)c(Cl)c2)N2C[C@@H](Cc3ccccc3)N=C12 | 8.80 | Selectivity [3]: 4380; Selectivity [4]: 394; Selectivity [5]: 6250; Selectivity [6]: 6250
CCN1C(=O)c2c(nc(C(N)=O)n2Cc2ccc(OC)cc2)N2C1=N[C@@H]1CCC[C@@H]12 | 8.40 | –
CCN1C(=O)c2c(nc(OC)n2Cc2ccc(O)c(Br)c2)N2C1=N[C@@H]1CCC[C@@H]12 | 8.80 | –
CCOc1nc2c(n1Cc1ccc(O)cc1)C(=O)N(CC)C1=N[C@@H]3CCC[C@@H]3N12 | 9.05 | –
CCN1C(=O)c2c(nc(Cc3ccccc3)n2Cc2cccc(C)c2)N2C1=N[C@@H]1CCC[C@@H]12 | – | inhibition [2]: 26%
CCN1C(=O)c2c(nc(OC)n2Cc2ccc(O)c(Br)c2)N2C[C@@H](Cc3ccccc3)N=C12 | 8.89 | Selectivity [3]: 7690; Selectivity [4]: 3770; Selectivity [5]: 7690; Selectivity [6]: 7690
CCN1C(=O)c2c(nc(Cc3ccccc3)n2Cc2ccc(Cl)cc2)N2C1=N[C@@H]1CCC[C@@H]12 | 6.80 | –
CCN1C(=O)c2c(nc(Cc3ccccc3)n2Cc2cccc(Cl)c2)N2C1=N[C@@H]1CCC[C@@H]12 | – | inhibition [2]: 26%
CCN1C(=O)c2c(nc(OC)n2Cc2ccc(O)c(Cl)c2)N2C1=N[C@@H]1CCC[C@@H]12 | 8.70 | –
CCN1C(=O)c2c(nc(C(=O)NC)n2Cc2ccc(O)c(Cl)c2)N2C1=N[C@@H]1CCC[C@@H]12 | 8.89 | –
CCN1C(=O)c2c(nc(S(=O)(=O)CC)n2Cc2ccc(OC)cc2)N2C1=N[C@@H]1CCC[C@@H]12 | – | inhibition [2]: 31%
CCN1C(=O)c2c(nc(OCc3ccccc3)n2Cc2ccc(O)c(Cl)c2)N2C[C@@H](Cc3ccccc3)N=C12 | 8.68 | Selectivity [3]: 4760; Selectivity [4]: 2170; Selectivity [5]: 4760; Selectivity [6]: 4760
CCSc1nc2c(n1Cc1ccc(O)cc1)C(=O)N(CC)C1=N[C@@H]3CCC[C@@H]3N12 | 8.74 | –
CCN1C(=O)c2c(nc(OC)n2Cc2ccc(OC)c(Br)c2)N2C[C@@H](Cc3ccccc3)N=C12 | 8.66 | Selectivity [3]: 4090; Selectivity [4]: 418; Selectivity [5]: 4540; Selectivity [6]: 4540
CCOc1nc2c(n1Cc1ccc(O)c(Cl)c1)C(=O)N(CC)C1=N[C@@H]3CCC[C@@H]3N12 | 8.68 | –
